Where “and” joins values, the source holds several entries; their conditions need not be identical. Equal values may be shown once. Inconclusive results and toxic doses are left out. Cut-off read from the data, not from the text of the source: active = T/C of 150% or more; inactive = T/C below 125%.
System: L1210 leukemia ip in BDF1 mice, survival T/C
Test: NCI In Vivo Anticancer Drug Screen. Data for tumor model L1210 Leukemia (intraperitoneal) in B6D2F1 (BDF1) mice
Settings: endpoint: mean survival time, higher = longer survival
Summary of the method: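 Survival endpoint. Drug-treated group vs vehicle group, expressed as T divided by C. Tumor passaged by transplantation.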

[1] = dose: 100.0 mg/kg/injection, schedule: Q04DX003 (ip), vehicle: Klucel (hydroxypropylcellulose) (HPC)
[2] = dose: 200.0 mg/kg/injection, schedule: Q04DX003 (ip), vehicle: Klucel (hydroxypropylcellulose) (HPC)
[3] = dose: 400.0 mg/kg/injection, schedule: Q04DX003 (ip), vehicle: Klucel (hydroxypropylcellulose) (HPC)
[4] = dose: 100.0 mg/kg/injection, schedule: Q04DX003 (ip), vehicle: saline
[5] = dose: 200.0 mg/kg/injection, schedule: Q04DX003 (ip), vehicle: saline
[6] = dose: 400.0 mg/kg/injection, schedule: Q04DX003 (ip), vehicle: saline
[7] = dose: 100.0 mg/kg/injection, schedule: Q01DX001 (ip), vehicle: saline
[8] = dose: 200.0 mg/kg/injection, schedule: Q01DX001 (ip), vehicle: saline
[9] = dose: 100.0 mg/kg/injection, schedule: Q01DX009 (ip), vehicle: Klucel (hydroxypropylcellulose) (HPC)
[10] = dose: 100.0 mg/kg/injection, schedule: Q04DX002 (ip), vehicle: Klucel (hydroxypropylcellulose) (HPC)
[11] = dose: 200.0 mg/kg/injection, schedule: Q01DX009 (ip), vehicle: Klucel (hydroxypropylcellulose) (HPC)
[12] = dose: 200.0 mg/kg/injection, schedule: Q04DX002 (ip), vehicle: Klucel (hydroxypropylcellulose) (HPC)
[13] = dose: 400.0 mg/kg/injection, schedule: Q01DX009 (ip), vehicle: Klucel (hydroxypropylcellulose) (HPC)
[14] = dose: 400.0 mg/kg/injection, schedule: Q04DX002 (ip), vehicle: Klucel (hydroxypropylcellulose) (HPC)
[15] = dose: 100.0 mg/kg/injection, schedule: Q04DX003 (ip), vehicle: saline with Tween-80
[16] = dose: 200.0 mg/kg/injection, schedule: Q04DX003 (ip), vehicle: saline with Tween-80
[17] = dose: 400.0 mg/kg/injection, schedule: Q04DX003 (ip), vehicle: saline with Tween-80
[18] = dose: 100.0 mg/kg/injection, schedule: Q04DX003 (ip), vehicle: gum acacia
[19] = dose: 100.0 mg/kg/injection, schedule: Q01DX001 (ip), vehicle: saline with Tween-80
[20] = dose: 200.0 mg/kg/injection, schedule: Q01DX001 (ip), vehicle: saline with Tween-80
[21] = dose: 400.0 mg/kg/injection, schedule: Q01DX001 (ip), vehicle: saline with Tween-80

Measured: T/C

CN(C)P(N)(N)=O
inactive: dose: 100.0 mg/kg/injection, schedule: Q01DX009 (ip), vehicle: saline 101 % of control | [1] 97 % of control | dose: 200.0 mg/kg/injection, schedule: Q01DX009 (ip), vehicle: saline 97 % of control | [2] 101 % of control | dose: 400.0 mg/kg/injection, schedule: Q01DX009 (ip), vehicle: saline 103 % of control | [3] 100 % of control

CCCCCCCCCCCCCCCCOC(=O)CC(=O)OCCCCCCCCCCCCCCCC
inactive: dose: 100.0 mg/kg/injection, schedule: Q01DX001 (ip), vehicle: other 86 % of control | dose: 200.0 mg/kg/injection, schedule: Q01DX001 (ip), vehicle: other 100 % of control | dose: 400.0 mg/kg/injection, schedule: Q01DX001 (ip), vehicle: other 108 % of control

OCCCNCc1ccccc1
inactive: [4] 94 % of control | [5] 103 % of control | [6] 97 % of control

NS(=O)(=O)c1nc[nH]c1[N+](=O)[O-]
inactive: dose: 100.0 mg/kg/injection, schedule: Q01DX009 (ip), vehicle: acetone 92 % of control | dose: 200.0 mg/kg/injection, schedule: Q01DX009 (ip), vehicle: acetone 90 % of control

CCCCc1ccc(C(=O)O)nc1.[Cu+2]
inactive: dose: 5.0 mg/kg/injection, schedule: Q01DX001 (ip), vehicle: saline 97 % of control | dose: 10.0 mg/kg/injection, schedule: Q01DX001 (ip), vehicle: saline 105 % of control | dose: 20.0 mg/kg/injection, schedule: Q01DX001 (ip), vehicle: saline 106 % of control

COC(=O)/C(=C\c1cccnc1)NC(=O)c1ccccc1
inactive: dose: 50.0 mg/kg/injection, schedule: Q01DX001 (ip), vehicle: saline 100 % of control | [7] 100 % of control | [4] 97 % of control | [8] 103 % of control | [5] 95 % of control | [6] 97 % of control

Clc1ccc(/C=N\N2CCCCCC2)cc1
inactive: dose: 100.0 mg/kg/injection, schedule: Q01DX001 (ip), vehicle: Klucel (hydroxypropylcellulose) (HPC) 105 % of control | dose: 200.0 mg/kg/injection, schedule: Q01DX001 (ip), vehicle: Klucel (hydroxypropylcellulose) (HPC) 100 % of control | dose: 400.0 mg/kg/injection, schedule: Q01DX001 (ip), vehicle: Klucel (hydroxypropylcellulose) (HPC) 98 % of control

CC(C)OC(=O)Nc1ccccc1
inactive: [9] 93 % of control | [10] 102 % of control | [11] 93 % of control | [12] 112 % of control | [13] 110 % of control | [14] 115 % of control

Cc1ccc(NCCN2CCOCC2)c2c(=O)c3ccccc3sc12
inactive: dose: 9.0 mg/kg/injection, schedule: Q01DX Z (ip), vehicle: methylcellulose (MC) 92 % of control | dose: 14.0 mg/kg/injection, schedule: Q01DX Z (ip), vehicle: methylcellulose (MC) 104 % of control | dose: 21.0 mg/kg/injection, schedule: Q01DX Z (ip), vehicle: methylcellulose (MC) 97 % of control | dose: 32.0 mg/kg/injection, schedule: Q01DX Z (ip), vehicle: methylcellulose (MC) 109 % of control

Cc1cc(Cl)ccc1OC(=O)Nc1cccc(Cl)c1Cl
inactive: [9] 102 % of control | [11] 89 % of control | [13] 94 % of control

CCC1(c2ccccc2)NC(=O)N(C)C1=O (stereo unspecified)
inactive: [9] 97 % of control | [1] 100 % of control | [11] 110 % of control | [2] 95 % of control | [3] 90 % of control

CC1=CCCCC1Oc1ccccc1 (stereo unspecified)
inactive: [15] 104 % of control | [16] 96 % of control | [17] 109 % of control

Cc1cccc(-c2nc3ncnc(N)c3[nH]2)c1
inactive: dose: 6.25 mg/kg/injection, schedule: Q01DX001 (ip), vehicle: saline with Tween-80 95 % of control | dose: 12.5 mg/kg/injection, schedule: Q01DX001 (ip), vehicle: saline with Tween-80 97 % of control | dose: 25.0 mg/kg/injection, schedule: Q01DX001 (ip), vehicle: saline with Tween-80 101 % of control

CC(C)(CO)N=Cc1cc(Cl)cc(Cl)c1O
inactive: dose: 75.0 mg/kg/injection, schedule: Q01DX001 (ip), vehicle: saline 102 % of control | dose: 150.0 mg/kg/injection, schedule: Q01DX001 (ip), vehicle: saline 101 % of control | dose: 300.0 mg/kg/injection, schedule: Q01DX001 (ip), vehicle: saline 109 % of control

Cc1ccccc1Nc1nc(N)nc2nc(N)c(C(N)=O)nc12
inactive: [10] 97 % of control | [12] 92 % of control | [14] 92 % of control

O=C(/C=C/c1ccccc1[N+](=O)[O-])c1ccccc1
inactive: [9] 97 % of control | [11] 101 % of control | [13] 98 % of control

C=CC(=O)N1CCOCC1
inactive: [15] 113 % of control | [16] 100 % of control | [17] 108 % of control

c1ccc(N/N=C2/CCN3CCCc4cccc2c43)cc1
inactive: dose: 3.0 mg/kg/injection, schedule: Q01DX009 (ip), vehicle: DMSO 98 % of control | dose: 6.0 mg/kg/injection, schedule: Q01DX009 (ip), vehicle: DMSO 96 % of control | dose: 12.0 mg/kg/injection, schedule: Q01DX009 (ip), vehicle: DMSO 95 % of control | dose: 12.5 mg/kg/injection, schedule: Q04DX003 (ip), vehicle: DMSO 101 % of control | dose: 25.0 mg/kg/injection, schedule: Q01DX009 (ip), vehicle: DMSO 89 % of control | dose: 25.0 mg/kg/injection, schedule: Q04DX003 (ip), vehicle: DMSO 100 % of control | dose: 50.0 mg/kg/injection, schedule: Q04DX003 (ip), vehicle: DMSO 104 % of control | [18] 95 % of control

S=c1nc[nH]c2c1ncn2Cc1ccc(Cl)c(Cl)c1
inactive: [12] 94 % of control | [14] 108 % of control

O=C(c1cccnc1)N1CCCC1
inactive: [9] 113 % of control | [11] 109 % of control | [13] 98 % of control

Cc1ccc(/C=N/NC(=O)c2ccccc2NC(=O)c2ccccc2)cc1
inactive: [9] 105 % of control | [11] 97 % of control | [13] 95 % of control

NC(=O)N=C(N)N
inactive: [7] 92 % of control | [8] 90 % of control | dose: 400.0 mg/kg/injection, schedule: Q01DX001 (ip), vehicle: saline 92 % of control

COC1(C#N)C(=O)c2ccccc2C1=O
inactive: [19] 97 % of control | [20] 108 % of control | [21] 94 % of control

O=C1c2ccccc2C(=O)N1N1C(=O)C2C3CCC(O3)C2C1=O (stereo unspecified)
inactive: [19] 97 % of control and 91 % of control | dose: 100.0 mg/kg/injection, schedule: Q04DX002 (ip), vehicle: saline with Tween-80 101 % of control and 106 % of control | [15] 93 % of control and 95 % of control | [20] 94 % of control and 90 % of control | dose: 200.0 mg/kg/injection, schedule: Q04DX002 (ip), vehicle: saline with Tween-80 105 % of control | [16] 95 % of control and 100 % of control | [21] 96 % of control and 97 % of control | dose: 400.0 mg/kg/injection, schedule: Q04DX002 (ip), vehicle: saline with Tween-80 94 % of control and 101 % of control | [17] 95 % of control and 100 % of control

CC(C)c1ccc(C(c2c(O)c3ccccc3oc2=O)c2c(O)c3ccccc3oc2=O)cc1
inactive: [9] 90 % of control | [1] 106 % of control | [11] 103 % of control | [2] 100 % of control | [3] 105 % of control

O=C(O)CCCOc1cc(Cl)c(Cl)cc1Cl
inactive: dose: 50.0 mg/kg/injection, schedule: Q01DX001 (ip), vehicle: carboxymethylcellulose (CMC) 88 % of control | dose: 50.0 mg/kg/injection, schedule: Q01DX009 (ip), vehicle: gum acacia 98 % of control | dose: 50.0 mg/kg/injection, schedule: Q04DX003 (ip), vehicle: gum acacia 96 % of control | dose: 100.0 mg/kg/injection, schedule: Q01DX001 (ip), vehicle: carboxymethylcellulose (CMC) 88 % of control | dose: 100.0 mg/kg/injection, schedule: Q01DX009 (ip), vehicle: gum acacia 100 % of control | [18] 96 % of control | dose: 200.0 mg/kg/injection, schedule: Q01DX009 (ip), vehicle: gum acacia 93 % of control | dose: 200.0 mg/kg/injection, schedule: Q04DX003 (ip), vehicle: gum acacia 104 % of control
